In US10301272B2, “Carboxamide or sulfonamide substituted thiazoles and related derivatives as modulators for the orphan nuclear receptor ROR[γ]” (Phenex Pharmaceuticals AG, priority 2012, dated 2019):
Like-named read-outs stand apart in the source and are kept apart here.

Key:
[1] = molecular target: RORγ (Homo sapiens, UniProt P51449); test: RORγ Gal4 Reporter Gene Assay; type: cell-based; settings: for IC50: 293T cells
In short: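 Cells at 5×10^5/well were transfected with RORγ fragments fused to the GAL4 DNA-binding domain (CMV promoter), a 5×GAL4-site firefly luciferase reporter and CMV-Renilla luciferase for normalization. About 4 h later serum-free MEM and compound were added (vehicle ≤0.1%). Cultures at 37 °C, 5% CO2; at least triplicates.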

[2] = molecular target: RORγ ligand binding domain (LBD) (Homo sapiens (Human), UniProt P51449); test: TR-FRET Activity Assay (ligand sensing assay, LANCE); settings: for pIC50 (FRET): TR-FRET, interaction of RORγ-LBD with coactivator peptide
Sequence of RORγ ligand binding domain (LBD) (P51449 269-508): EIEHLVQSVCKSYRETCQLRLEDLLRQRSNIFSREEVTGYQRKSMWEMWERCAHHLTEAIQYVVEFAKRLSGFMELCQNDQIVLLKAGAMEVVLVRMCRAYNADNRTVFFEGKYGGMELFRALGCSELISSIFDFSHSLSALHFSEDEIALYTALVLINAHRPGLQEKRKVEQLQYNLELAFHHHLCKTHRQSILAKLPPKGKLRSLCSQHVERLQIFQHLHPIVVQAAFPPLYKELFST

Sequence of RORγ (P51449 whole entry, looked up, the tested form may be a part): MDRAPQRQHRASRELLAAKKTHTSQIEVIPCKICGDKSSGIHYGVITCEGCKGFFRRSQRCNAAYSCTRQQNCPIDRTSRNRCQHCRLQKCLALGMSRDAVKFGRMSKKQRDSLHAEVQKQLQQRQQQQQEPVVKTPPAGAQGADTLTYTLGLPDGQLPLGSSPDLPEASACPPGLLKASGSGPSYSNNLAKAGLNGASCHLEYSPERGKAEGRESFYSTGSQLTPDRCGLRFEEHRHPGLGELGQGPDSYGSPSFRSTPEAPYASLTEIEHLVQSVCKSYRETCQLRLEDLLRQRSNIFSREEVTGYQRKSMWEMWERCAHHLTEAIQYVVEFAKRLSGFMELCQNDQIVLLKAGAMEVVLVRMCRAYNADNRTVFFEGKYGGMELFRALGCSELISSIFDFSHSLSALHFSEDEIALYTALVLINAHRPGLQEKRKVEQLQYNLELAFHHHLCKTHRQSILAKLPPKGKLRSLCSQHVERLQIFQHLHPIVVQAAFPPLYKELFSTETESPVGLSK

Row | IC50 ([1]; firefly (FF) luciferase, read-out: pIC50 (FF) (converted)) [nM] | IC50 ([1]; renilla normalised (RENnorm) luciferase, read-out: pIC50 (REN) (converted)) [nM] | IC50 [2] [nM] | Structure (SMILES) | pIC50 (FF) [1] | pIC50 (REN) [1] | pIC50 (FRET) [2]
1 | – | – | – | CCNS(=O)(=O)c1ccc(-c2sc(C(=O)NCC(C)(C)O)nc2CC2CCCCC2)c(Cl)c1Cl [Example 18, 4-(Cyclohexylmethyl)-5-(2,3-dichloro-4-(N-ethylsulfamoyl)phenyl)-N-(2-hydroxy-2-methylpropyl)thiazole-2-carboxamide] | 6.9/8.1/8.0 | 6.9/8.1/8.0 | 6.9/8.1/8.0
2 | – | – | – | CN(C(=O)c1nc(CC2CCCCC2)c(-c2ccc(S(=O)(=O)NC(C)(C)C)c3ccccc23)o1)C1CCOCC1 [100/4] | 6.6/7.1/7.3 | 6.6/7.1/7.3 | 6.6/7.1/7.3
3 | – | – | – | CC(C)(C)NS(=O)(=O)c1ccc(-c2sc(C(=O)N[C@H]3C[C@H](C(=O)O)C3)nc2CC2CCCCC2)cc1C(F)(F)F [9/2] | 6.9/8.0/8.0 | 6.9/8.0/8.0 | 6.9/8.0/8.0
4 | – | – | – | CC(C)(O)CNC(=O)c1nc(CC2CCCCC2)c(-c2ccc(S(=O)(=O)NC(C)(C)C)c3c(F)cccc23)s1 [19/8] | 7.0/7.7/7.8 | 7.0/7.7/7.8 | 7.0/7.7/7.8
5 | – | – | – | CC(C)(C)NS(=O)(=O)c1ccc(-c2sc(C(=O)NC34CC(C(=O)O)(C3)C4)nc2CC2CCCCC2)c(Cl)c1Cl [6/38] | 6.8/7.8/7.9 | 6.8/7.8/7.9 | 6.8/7.8/7.9
6 | – | – | – | O=C(c1nc(CC2CCCCC2)c(-c2ccc(S(=O)(=O)N3CCOCC3)c3ccccc23)s1)N1CC2(CCS(=O)(=O)CC2)C1 [14/4] | 6.2/6.4/6.3 | 6.2/6.4/6.3 | 6.2/6.4/6.3
7 | 126 | 126 | 2000 | O=C(N[C@H]1C[C@H](C(=O)O)C1)c1nc(CC2CCCCC2)c(-c2ccc(OC(F)(F)F)c3ccccc23)s1 [7/21] | – | – | –
